Experiment [1] deals with Slc:ddY (SPF) mice injected with β-amyloid solution. In words: Y-maze test (spontaneous alternation test) in mice injected with β-amyloid solution. The experiment is classed as in vivo, mouse. As to the method: Slc:ddY (SPF:Specific-Pathogen-Free) mice (Supply Resource: Japan SLC, Inc.) received the administration a sample (Vehicle control, Trapa japonica extract, Lutein, or Trapa japonica extract+Lutein) and then the injection of β-amyloid solution. For the mice, Y-maze test was performed to evaluate the improvement effects of Trapa japonica extract, Lutein, and a combination thereof on learning disorder. The test was performed twice. The Y-maze test was performed according to Takayoshi MAMIYA et al., “Effects of Pre-Germinated Brown Rice on β-Amyloid Protein-Induced Learning and Memory Deficits in Mice”, Biol. Pharm. Bull., July 2004, 27(7), 1041-1045 to evaluate the effects.
Male, 5-week-old, Slc:ddY (SPF) mouse(Body weight: 23˜28 g: n=32)
According to the following procedure, model mice were made using the above mice: Each mouse was anesthetized with the intraperitoneal administration (dosing volume: 10 mL/kg) of pentobarbital sodium (TOKYO CHEMICAL INDUSTRY CO., LTD.) at 40 mg/kg. After anesthesia, levobupivacaine hydrochloride (POPSCAINE® 0.25% injection, Maruishi Pharmaceutical Co., Ltd.) (0.1 mL) was administered subcutaneously into the scalp of the mouse. The hair on the top of the mouse was trimmed, and the head part was fixed to a brain stereotactic device. The scalp of the mouse was sterilized with iodine tincture, and then the head part was incised to expose the skull and the connective tissue on the skull was removed with a cotton swab. The treated skull was dried with a blower to find the position of bregma more easily. A hole for inserting a stainless steel pipe was drilled in the skull at 1 mm to the right and 0.2 mm behind bregma with a dental drill. The stainless steel pipe connected to a silicon tube with an outside diameter of 0.5 mm and a micro syringe was perpendicularly inserted to a depth of 2.5 mm from the bone surface. 3 μL of a β-amyloid solution ([…]) was injected (in the sham operation group, 3 μL of water for injection was injected) into the cerebral ventricle with a microsyringe pump for 3 minutes. After the injection, the inserted stainless steel pipe was allowed to stand for 3 minutes, and then the pipe was slowly removed. After removing the stainless steel pipe, the cranial was closed with a non-absorbable myelostatic agent (NESTOP®, Alfresa Pharma Co., Ltd.) and the scalp was sutured. The mouse were removed from the brain stereotactic device and returned to the breeding cage.
The β-amyloid solution was prepared by dissolving β-amyloid (Amyloid-β Protein(25-35); Polypeptide Laboratories) to 2 mM with water for injection and incubating the solution in the constant temperature storage at 37° C. for 4 days. Water for injection was used as the vehicle for sham operation. […]

In experiment [2] the test system is pyramidal cell layer of the hippocampus CA1 region. As to the kind of experiment: Histopathological assessment of KB stained brain specimens from the mice of Test Example 1. The experiment is classed as in vivo, mouse. As to the method: The brain was isolated from the mice in each group of Test Example 1 to prepare histopathological specimens, and the histopathological assessment of the prepared histopathological specimens was performed. Such test was performed twice. Each mouse in each group of Test Example 1 was anesthetized with an isoflurane solution and the chest of the mouse was opened to expose the heart. The exposed heart was cut into the auricle thereof. A polypropylene disposable syringe with an injection needle was used, the injection needle thereof was inserted from left ventricle and about 30 mL of ice-cooled saline was injected into the heart, and then the heart was perfused with about 30 mL of 10 vol % formalin neutral buffer solution. […] The isolated brain was embedded in paraffin according to any conventional method, one histopathological section was discontinuously prepared at around bregma-1.70 mm and around bregma-2.80 mm, respectively, and then Klüver-Barrera stained (KB stained) tissue specimens were prepared from each section. The cut brain was stored in 10 vol % formalin neutral buffer solution. • 1) For each specimen, the images of pyramidal cell layers of the hippocampus CA1 region closest to bregma-1.70 mm and bregma-2.80 mm from the optical microscope image (George Paxinos and Keith B. J. Franklin. (2013). The Mouse Brain in stereotaxic coordinates.

Setting [3] is: 8 minutes, about 1 hour after administration on the 14th day, gavage once per day for 14 days (Trapa japonica extract 2 mg/kg, Lutein 0.4 mg/kg, combination 2 + 0.4 mg/kg), β-amyloid on day 8, average of n=10.
Setting [4] is: β-amyloid model mice, 14 days gavage.

As to `CC1=C[C@H](O)CC(C)(C)[C@H]1/C=C/C(C)=C/C=C/C(C)=C/C=C/C=C(C)/C=C/C=C(C)/C=C/C1=C(C)C[C@@H](O)CC1(C)C` [Lutein, (3R,3′R,6′R)-β,ε-carotene-3,3′-diol], in experiment [1] (setting [3]), the Spontaneous alternation rate is listed as 59.3%, the “The number of spontaneous alternation” value is given as 21.2 Count and the “The total number of entries” value turned out to be 37.0 Count. Further, in experiment [1] (setting [4]), the “Spontaneous alternation rate as compared to the vehicle control group (in words)” value is on record as “not improved”. For the same compound, the “Area of pyramidal cell layer” value in experiment [2] (hippocampus CA1 region, KB stained specimens, mice of Test Example 1 (gavage 14 days; Trapa japonica extract 2 mg/kg, Lutein 0.4 mg/kg, combination 2 + 0.4 mg/kg), average of n=2) is reported as 224874 μm^2. The “Area of pyramidal cell layer of the hippocampus CA1 region as compared to the vehicle control group (in words)” value in experiment [2] (setting [4]) is “increased”.

(Values after patent publication US20210128492A1, “COMPOSITION FOR PREVENTING AND/OR IMPROVING BRAIN DYSFUNCTION COMPRISING A LUTEIN OR SALT THEREOF AND A PLANT PRODUCT OF THE GENUS TRAPA” (Santen Pharmaceutical Co., Ltd., priority 2017, published 2021).)
